Assay [1] has as its target T1, DLK (Homo sapiens, UniProt Q12852).
T1 sequence (Q12852 1-520): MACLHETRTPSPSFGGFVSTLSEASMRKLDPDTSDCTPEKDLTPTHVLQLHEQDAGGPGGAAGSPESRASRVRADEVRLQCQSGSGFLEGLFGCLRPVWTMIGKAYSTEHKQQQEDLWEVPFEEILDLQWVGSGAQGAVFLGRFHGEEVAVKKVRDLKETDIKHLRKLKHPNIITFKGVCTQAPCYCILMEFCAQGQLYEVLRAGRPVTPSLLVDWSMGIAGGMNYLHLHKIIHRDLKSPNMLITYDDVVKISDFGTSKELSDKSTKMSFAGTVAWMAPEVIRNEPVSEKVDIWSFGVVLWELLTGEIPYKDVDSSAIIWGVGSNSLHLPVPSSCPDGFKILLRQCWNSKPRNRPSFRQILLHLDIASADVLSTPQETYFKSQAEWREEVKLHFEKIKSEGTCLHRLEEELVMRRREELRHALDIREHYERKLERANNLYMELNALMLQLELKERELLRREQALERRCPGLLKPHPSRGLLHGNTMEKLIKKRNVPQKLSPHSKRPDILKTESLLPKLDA
In words: biochemical.

Assay [2] has as its target T1, DLK. To be noted: read-out: DLK (Ki) μM; TR-FRET; 5 nM GST-tagged DLK (catalytic domain aa 1-520), 40 nM HIS-MKK4 K131M substrate, 30 μM ATP, 60 minutes. (In general: TR-FRET usually uses a lanthanide donor and a delayed reading to cut background.)

SMILES strings stand for the structures. Read-outs that look alike come from different tables or passages of the source.

What is called Ki is a dissociation constant, usually derived from enzyme kinetics or from competition with a known ligand. In assay [1], `Cc1c[nH]c2ncc(-c3cc(C4CCOC4)n(CC4CC4)n3)cc12` (racemic) [Compound 13, 5-(1-(cyclopropylmethyl)-5-(tetrahydrofuran-3-yl)-1H-pyrazol-3-yl)-3-methyl-1H-pyrrolo[2,3-b]pyridine] came in with a Ki of 29 nM.
Molecule `CC(C)n1nc(-c2cnc(N)c(C(F)F)c2)cc1C(C)(C)C#N` [Compound 5, 2-(3-(6-amino-5-(difluoromethyl)pyridin-3-yl)-1-isopropyl-1H-pyrazol-5-yl)-2-methylpropanenitrile] came in with a Ki in assay [1] of over 1000 nM.
The same measure, in the same setting: to `Nc1ncc(-c2cc(C3CCOCC3)n(C3CC(F)(F)C3)n2)cc1F` [Compound 37, 5-(1-(3,3-difluorocyclobutyl)-5-(tetra-hydro-2H-pyran-4-yl)-1H-pyrazol-3-yl)-3-fluoropyridin-2-amine] belongs over 1000 nM.
As for `CC(C)n1nc(-c2cnc3c(c2)C(C)(C)C(=O)N3)cc1C1CN(C2COC2)C1` [Compound 61, 5-(1-isopropyl-5-(1-(oxetan-3-yl)aze-tidin-3-yl)-1H-pyrazol-3-yl)-3,3-dimeth-yl-1H-pyrrolo[2,3-b]pyridin-2(3H)-one], the Ki in assay [1] is over 1000 nM.
For the molecule `CC(C)n1nc(-c2cnc3[nH]cnc3c2)cc1C1CN(C2COC2)C1` [Compound 62, 6-(1-isopropyl-5-(1-(oxetan-3-yl)aze-tidin-3-yl)-1H-pyrazol-3-yl)-3H-imi-dazo[4,5-b]pyridine], in assay [1], the Ki was over 1000 nM.
Molecule `CC(C)n1nc(-c2cnc3c(c2)CC(=O)N3)cc1C1CCN(C2COC2)CC1` [Compound 73, 5-(1-isopropyl-5-(1-(oxetan-3-yl)pipe-ridin-4-yl)-1H-pyrazol-3-yl)-1H-pyrro-lo[2,3-b]pyridin-2(3H)-one] yielded a Ki in assay [1] of over 1000 nM.
In the case of `CC(C)n1nc(-c2cnc3[nH]cnc3c2)cc1C1CCN(C2COC2)CC1` [Compound 79, 6-(1-isopropyl-5-(1-(oxetan-3-yl)pipe-ridin-4-yl)-1H-pyrazol-3-yl)-3H-imi-dazo[4,5-b]pyridine], the Ki in assay [1] is over 1000 nM.
Still for that read-out and setting: then `CC(C)n1nc(-c2cnc3c(c2)C(C)(C)C(=O)N3)cc1C1CCN(C2COC2)CC1` [Compound 80, 5-(1-isopropyl-5-(1-(oxetan-3-yl)pipe-ridin-4-yl)-1H-pyrazol-3-yl)-3,3-di-methyl-1H-pyrrolo[2,3-b]pyridin-2 (3H)-one], with over 1000 nM.
On to `Cc1cc(-c2cc(C3CCN(C4COC4)CC3)n(C(C)C)n2)cnc1N` [Compound 82, 5-(1-isopropyl-5-(1-(oxetan-3-yl)pipe-ridin-4-yl)-1H-pyrazol-3-yl)-3-meth-ylpyridin-2-amine], for which the Ki in assay [1] is over 1000 nM.
Molecule `CC(C)n1nc(-c2cnc3c(c2)OCCN3)cc1C1CCN(C2COC2)CC1` [Compound 94, 7-(1-isopropyl-5-(1-(oxetan-3-yl)pipe-ridin-4-yl)-1H-pyrazol-3-yl)-3,4-di-hydro-2H-pyrido[3,2-b][1,4]oxazine] had a Ki in assay [1] of over 1000 nM.
As to `CC(C)n1nc(-c2cnc3c(c2)CCCN3)cc1C1CCN(C2COC2)CC1` [Compound 96, 6-(1-isopropyl-5-(1-(oxetan-3-yl)pipe-ridin-4-yl)-1H-pyrazol-3-yl)-1,2,3,4-tetahydro-1,8-naphthyridine], the Ki in assay [1] was over 1000 nM.
Same read-out and setting: to `COC1(c2cc(-c3cnc(N)c(C(F)(F)F)c3)nn2C(C)C)CCN(C2COC2)CC1` [Compound 103, 5-(1-isopropyl-5-(4-methoxy-1-(oxetan-3-yl)piperidin-4-yl)-1H-pyrazol-3-yl)-3-(trifluoromethyl)pyridin-2-amine] belongs over 1000 nM; to `CC1(Cn2nc(-c3cnc(N)c(Cl)c3)cc2[C@H]2[C@@H]3CN(CC(F)(F)F)C[C@@H]32)COC1` [Compound 112, 3-chloro-5-(1-((3-methyloxetan-3-yl)methyl)-5-((1R,5S,6r)-3-(2,2,2-trifluoro-ethyl)-3-azabicyclo[3.1.0]hexan-6-yl)-1H-pyrazol-3-yl)pyridin-2-amine], over 1000 nM.
With `CC(C)n1nc(-c2cnc(N)c(C(C)(F)F)c2)cc1[C@H]1[C@@H]2CN(C3COC3)C[C@@H]21` [Compound 175, 3-(1,1-difluoroethyl)-5-(1-isopropyl-5-((1R,5S,6r)-3-(oxetan-3-yl)-3-aza-bicyclo[3.1.0]hexan-6-yl)-1H-pyrazol-3-yl)pyridin-2-amine], the Ki in assay [2] was found to be 0.0092 µM.
As to `CC1(Cn2nc(-c3cnc(N)c(C(F)(F)F)c3)cc2[C@H]2[C@@H]3CN(C4COC4)C[C@@H]32)CC1` [Compound 177, 5-(1-((1-methylcyclopropyl)methyl)-5-((1R,5S,6r)-3-(oxetan-3-yl)-3-aza-bicyclo[3.1.0]hexan-6-yl)-1H-pyrazol-3-yl)-3-(trifluoromethyl)pyridin-2-amine], in assay [2], the Ki was 0.00067 µM.

Source of the values: patent US10028942B2 (priority 2013, dated 2018).
